According to patent publication US12077503B2, “Substituted cyclic amides and their use as herbicides” (FMC CORPORATION, priority 2015, dated 2024):

Legend:
Assay type in all cases: in vivo
[1] = system: barnyardgrass (Echinochloa crus-galli); assay: Test A preemergence; conditions: Echinochloa crus-galli, pre-emergence, 240 h, 0 to 100 scale where 0 is no effect and 100 is complete control, read-out: Barnyardgrass plant response rating
Procedure, shortened: (§1)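 Compounds were formulated in a non-phytotoxic solvent mixture with surfactant and applied as a preemergence directed soil spray after seeding, or sprayed postemergence over plants 2 to 10 cm tall at the one- to two-leaf stage. Evaluation after about 10 d compared treated with untreated controls, using a scale from 0 (no effect) to 100 (complete control).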

Kochia (Kochia scoparia) [2] = assay: Test A preemergence; conditions: Bassia scoparia, pre-emergence, 240 h, 0 to 100 scale where 0 is no effect and 100 is complete control, read-out: Kochia plant response rating
Procedure, shortened: as §1

[3] = system: ragweed (common ragweed, Ambrosia elatior); assay: Test A preemergence; conditions: Ambrosia artemisiifolia, pre-emergence, 240 h, 0 to 100 scale where 0 is no effect and 100 is complete control, read-out: Ragweed plant response rating
Procedure, shortened: as §1

[4] = system: giant foxtail (Setaria faberii); assay: Test A preemergence; conditions: Setaria faberi, pre-emergence, 240 h, 0 to 100 scale where 0 is no effect and 100 is complete control, read-out: Foxtail, Giant plant response rating
Procedure, shortened: as §1

[5] = system: pigweed (Amaranthus retroflexus); assay: Test A preemergence; conditions: Amaranthus retroflexus, pre-emergence, 240 h, 0 to 100 scale where 0 is no effect and 100 is complete control, read-out: Pigweed plant response rating
[6] = system: ryegrass, Italian (Italian ryegrass, Lolium multiflorum); assay: Test A preemergence; conditions: Lolium multiflorum, pre-emergence, 240 h, 0 to 100 scale where 0 is no effect and 100 is complete control, read-out: Ryegrass, Italian plant response rating
Procedure, shortened: as §1

[7] = system: barnyardgrass (Echinochloa crus-galli); assay: Test A postemergence; conditions: Echinochloa crus-galli, post-emergence, 240 h
Procedure, shortened: as §1

Kochia (Kochia scoparia) [8] = assay: Test A postemergence; conditions: Bassia scoparia, post-emergence, 240 h
Procedure, shortened: as §1

[9] = system: ragweed (common ragweed, Ambrosia elatior); assay: Test A postemergence; conditions: Ambrosia artemisiifolia, post-emergence, 240 h
Procedure, shortened: as §1

[10] = system: wheat (Triticum aestivum); assay: Test A postemergence; conditions: Triticum aestivum, post-emergence, 240 h
Procedure, shortened: as §1

[11] = system: blackgrass (Alopecurus myosuroides); assay: Test A postemergence; conditions: Alopecurus myosuroides, post-emergence, 240 h
Procedure, shortened: as §1

[12] = system: giant foxtail (Setaria faberii); assay: Test A postemergence; conditions: Setaria faberi, post-emergence, 240 h
Procedure, shortened: as §1

corn (Zea mays) = assay: Test A postemergence; conditions: Zea mays, post-emergence, 240 h
Procedure, shortened: as §1

[13] = system: pigweed (Amaranthus retroflexus); assay: Test A postemergence; conditions: Amaranthus retroflexus, post-emergence, 240 h
Procedure, shortened: as §1

[14] = system: Galium (catchweed bedstraw, Galium aparine); assay: Test A postemergence; conditions: Galium, post-emergence, 240 h
Procedure, shortened: as §1

[15] = system: ryegrass, Italian (Italian ryegrass, Lolium multiflorum); assay: Test A postemergence; conditions: Lolium multiflorum, post-emergence, 240 h
Procedure, shortened: as §1

[16] = system: barnyardgrass (Echinochloa crus-galli); assay: Test B flooded paddy test; conditions: Echinochloa crus-galli, 250 g ai/ha, Flood; 0 to 100 scale where 0 is no effect and 100 is complete control; read-out: Barnyardgrass plant response rating
Procedure, shortened: (§2)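 2-leaf plants; pots flooded 3 cm over soil; cpd added to paddy water; depth held; greenhouse 13–15 d; visual rating vs controls, 0 = no effect, 100 = complete control.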

[17] = system: sedge, umbrella (small-flower umbrella sedge, Cyperus difformis); assay: Test B flooded paddy test; conditions: Cyperus difformis, 250 g ai/ha, Flood; 0 to 100 scale where 0 is no effect and 100 is complete control; read-out: Sedge, Umbrella plant response rating
Procedure, shortened: as §2

[18] = system: ducksalad (Heteranthera limosa); assay: Test B flooded paddy test; conditions: Heteranthera limosa, 250 g ai/ha, Flood; 0 to 100 scale where 0 is no effect and 100 is complete control; read-out: Ducksalad plant response rating
Procedure, shortened: as §2

rice (Oryra sativa) = assay: Test B flooded paddy test; conditions: Oryza sativa, 250 g ai/ha, Flood; 0 to 100 scale where 0 is no effect and 100 is complete control; read-out: Rice plant response rating
Procedure, shortened: as §2

[19] = 125 g ai/ha, preemergence, approx. 10 d

SMILES: CN1C[C@H](c2ccc(C(F)(F)F)nc2)[C@@](C)(C(=O)Nc2cccc(F)c2F)C1=O [Compound 1109]
- pest or weed control at 31 g/ha ([1]; 31 g ai/ha, Preemergence): 100%
- pest or weed control at 125 g/ha [1, 19]: 100%
- pest or weed control at 31 g/ha (Kochia (Kochia scoparia) [2]; 31 g ai/ha, Preemergence): 0%
- pest or weed control at 125 g/ha (Kochia (Kochia scoparia) [2]; [19]): 70%
- pest or weed control at 31 g/ha ([3]; 31 g ai/ha, Preemergence): 0%
- pest or weed control at 125 g/ha [3, 19]: 50%
- pest or weed control at 31 g/ha ([4]; 31 g ai/ha, Preemergence): 100%
- pest or weed control at 125 g/ha [4, 19]: 100%
- pest or weed control at 31 g/ha ([5]; 31 g ai/ha, Preemergence): 70%
- pest or weed control at 125 g/ha [5, 19]: 90%
- pest or weed control at 31 g/ha ([6]; 31 g ai/ha, Preemergence): 60%
- pest or weed control at 125 g/ha [6, 19]: 80%
- pest or weed control at 125 g/ha ([7]; 125 g ai/ha, postemergence, visual injury on 0 to 100 scale (0 no effect, 100 complete control), approx. 10 d, read-out: Barnyardgrass plant response rating): 100%
- pest or weed control at 31 g/ha ([7]; Postemergence, 31 g ai/ha, visual injury after approx. 10 d, 0 to 100 scale, 0 no effect, 100 complete control, read-out: Plant response rating, Barnyardgrass): 90%
- pest or weed control at 125 g/ha (Kochia (Kochia scoparia) [8]; 125 g ai/ha, postemergence, visual injury on 0 to 100 scale (0 no effect, 100 complete control), approx. 10 d, read-out: Kochia plant response rating): 70%
- pest or weed control at 31 g/ha (Kochia (Kochia scoparia) [8]; Postemergence, 31 g ai/ha, visual injury after approx. 10 d, 0 to 100 scale, 0 no effect, 100 complete control, read-out: Plant response rating, Kochia): 20%
- pest or weed control at 125 g/ha ([9]; 125 g ai/ha, postemergence, visual injury on 0 to 100 scale (0 no effect, 100 complete control), approx. 10 d, read-out: Ragweed plant response rating): 50%
- pest or weed control at 31 g/ha ([9]; Postemergence, 31 g ai/ha, visual injury after approx. 10 d, 0 to 100 scale, 0 no effect, 100 complete control, read-out: Plant response rating, Ragweed): 0%
- plant injury at 125 g/ha ([10]; 125 g ai/ha, postemergence, visual injury on 0 to 100 scale (0 no effect, 100 complete control), approx. 10 d, read-out: Wheat plant response rating): 60%
- plant injury at 31 g/ha ([10]; Postemergence, 31 g ai/ha, visual injury after approx. 10 d, 0 to 100 scale, 0 no effect, 100 complete control, read-out: Plant response rating, Wheat): 30%
- pest or weed control at 125 g/ha ([11]; 125 g ai/ha, postemergence, visual injury on 0 to 100 scale (0 no effect, 100 complete control), approx. 10 d, read-out: Blackgrass plant response rating): 40%
- pest or weed control at 31 g/ha ([11]; Postemergence, 31 g ai/ha, visual injury after approx. 10 d, 0 to 100 scale, 0 no effect, 100 complete control, read-out: Plant response rating, Blackgrass): 20%
- pest or weed control at 125 g/ha ([12]; 125 g ai/ha, postemergence, visual injury on 0 to 100 scale (0 no effect, 100 complete control), approx. 10 d, read-out: Foxtail, Giant plant response rating): 90%
- pest or weed control at 31 g/ha ([12]; Postemergence, 31 g ai/ha, visual injury after approx. 10 d, 0 to 100 scale, 0 no effect, 100 complete control, read-out: Plant response rating, Foxtail, Giant): 70%
- plant injury at 125 g/ha (corn (Zea mays); 125 g ai/ha, postemergence, visual injury on 0 to 100 scale (0 no effect, 100 complete control), approx. 10 d, read-out: Corn plant response rating): 80%
- Corn plant response rating (crop injury, 0 = no effect, 100 = complete kill) at 31 g/ha (corn (Zea mays); Postemergence, 31 g ai/ha, visual injury after approx. 10 d, 0 to 100 scale, 0 no effect, 100 complete control): 40%
- pest or weed control at 125 g/ha ([13]; 125 g ai/ha, postemergence, visual injury on 0 to 100 scale (0 no effect, 100 complete control), approx. 10 d, read-out: Pigweed plant response rating): 60%
- pest or weed control at 31 g/ha ([13]; Postemergence, 31 g ai/ha, visual injury after approx. 10 d, 0 to 100 scale, 0 no effect, 100 complete control, read-out: Plant response rating, Pigweed): 20%
- pest or weed control at 125 g/ha ([14]; 125 g ai/ha, postemergence, visual injury on 0 to 100 scale (0 no effect, 100 complete control), approx. 10 d, read-out: Galium plant response rating): 50%
- pest or weed control at 31 g/ha ([14]; Postemergence, 31 g ai/ha, visual injury after approx. 10 d, 0 to 100 scale, 0 no effect, 100 complete control, read-out: Plant response rating, Galium): 30%
- pest or weed control at 125 g/ha ([15]; 125 g ai/ha, postemergence, visual injury on 0 to 100 scale (0 no effect, 100 complete control), approx. 10 d, read-out: Ryegrass, Italian plant response rating): 50%
- pest or weed control at 31 g/ha ([15]; Postemergence, 31 g ai/ha, visual injury after approx. 10 d, 0 to 100 scale, 0 no effect, 100 complete control, read-out: Plant response rating, Ryegrass, Italian): 0%
- pest or weed control at 250 g/ha [16]: 85%
- pest or weed control at 250 g/ha [17]: 0%
- pest or weed control at 250 g/ha [18]: 90%
- pest or weed control at 250 g/ha (rice (Oryra sativa)): 50%
